# Measured values from patent US20120052025A1 (Colgate-Palmolive Company, priority 2009, published 2012).
# Tests used:
# [1] = Decomposition in buffered vs unbuffered pH 7.2 formulation; type: physicochemical; conditions: pH 7.2, phosphate buffer, 14 days
# Description: Two pH 7.2 formulations of Compound 1 are prepared, one with phosphate buffer, one without, and the decomposition of Compound 1 is measured over 14 days. While measurable decomposition is seen in both formulations, the slope of the rate of decomposition Compound 1 in the buffered formulation is decreased by 3.3 fold compared to that of the unbuffered formulation.
# [2] = type: physicochemical
# Excerpt: Although some borinic esters are effective as antibacterial agents, incorporating borinic esters into oral care compositions presents difficulties, as borinic esters have proven to be unstable when added to aqueous compositions. For example, borinic esters may hydrolyze and decompose, e.g., in oral care compositions. Additionally, borinic esters may be insoluble in aqueous compositions. […] There remains a need to develop compositions and methods to incorporate borinic acid derivatives stably in oral care compositions.
# The poor solubility of Compound A presents some formulation challenges. Its solubility in water is less than 100 ppm, and its solubility in flavor oils (often used to solubilize actives) is less than 0.5%. We have discovered that co-polymers of polyethylene glycol and polypropylene glycol are able to solubilize Compound 1. Fluraflo L4370 (BASF) is able to solubilize 1% Compound 1 (% w/w). It is necessary to stir the solution over low heat to fully solubilize the active. The resulting solution is cloudy, reflecting the nature of the Fluraflo L4370 itself. The solution of 1% Compound 1 in Fluraflo L4370 is diluted 1:1 with 1.5% SLS in water to produce a clear solution, composed of 0.5% AN0128, 0.75% SLS, 50% Fluraflo L4370 in water Similar results are achieved using Fluracare L1220.
# We further discovered that low molecular weight polyethylene glycol 300 (PEG 300) (Dow Chemical Company) solubilizes 10% Compound 1 (% w/w). It is necessary to stir the solution over low heat to fully solubilize the active. The resulting solution is clear with a slight yellow tint due to the color of Compound 1. […] Therefore, we conclude that solvents containing oligomers and/or polymers of ethylene glycol are capable of solubilizing Compound 1 and are suitable for formulation.
# (§1) The properties of Compound 1 in conjunction with other excipients are further evaluated by diluting a solution of Compound 1 in PEG 300 into other solvents such as propylene glycol and glycerin at varying ratios. A solution containing 1% Compound 1 in 19% PEG 300 and 80% propylene glycol is clear. This solution is then diluted 1:1 with 1% SLS in water to produce a solution composed of 0.5% Compound 1, 0.5% SLS, 9.5% PEG 300 and 40% propylene glycol in water which is then tested in the biofilm disruption assay. The percent reduction achieved versus the negative control is 80%. […] Similar results are achieved with PEG and glycerin.
# [3] = Stability of formulations with and without antioxidants; type: physicochemical
# Excerpt: The stability of three formulations of Compound 1 are compared, the formulations being identical except that one is without any antioxidants, one contains α-tocopherol, and the third contains sodium ascorbylphosphate.
# biofilm = assay: Biofilm disruption assay; type: cell-based
# Description: The solution of 0.5% AN0128.0.75% SLS. 50% Fluraflo L4370 in water is then tested in a biofilm disruption assay.
# A solution of 2% Compound 1 in PEG 300 is diluted 1:1 with 2% SLS in water to produce a solution composed of 1% Compound 1, 1% SLS, 50% PEG 300 in water which is then tested in a biofilm disruption assay.
# as §1
# F. nucleatum = assay: Minimum inhibitory concentration; type: cell-based; conditions: Fusobacterium nucleatum, Gram Negative, ethanol vehicle
# Excerpt: (§2) The minimum inhibitory concentration for COMPOUND 1 against common oral bacteria is found to be as follows. Ethanol is used as vehicle.
# S. sanguinis = assay: Minimum inhibitory concentration; type: cell-based; conditions: Streptococcus sanguinis, Gram Positive, ethanol vehicle
# Excerpt: as §2
# V. parvula = assay: Minimum inhibitory concentration; type: cell-based; conditions: Veillonella parvula, Gram Negative, ethanol vehicle
# Excerpt: as §2
# A. actinomycetemcomitans = assay: Minimum inhibitory concentration; type: cell-based; conditions: Aggregatibacter actinomycetemcomitans, Gram Negative, ethanol vehicle
# Excerpt: as §2
# A. naeslundii = assay: Minimum inhibitory concentration; type: cell-based; conditions: Actinomyces naeslundii, Gram Positive, ethanol vehicle
# Excerpt: as §2
# A. viscosus = assay: Minimum inhibitory concentration; type: cell-based; conditions: Actinomyces viscosus, Gram Positive, ethanol vehicle
# Excerpt: as §2
# S. gordonii = assay: Minimum inhibitory concentration; type: cell-based; conditions: Streptococcus gordonii, Gram Positive, ethanol vehicle
# Excerpt: as §2
# P. gingivalis = assay: Minimum inhibitory concentration; type: cell-based; conditions: Porphyromonas gingivalis, Gram Negative, ethanol vehicle
# Excerpt: as §2
# S. mutans = assay: Minimum inhibitory concentration; type: cell-based; conditions: Streptococcus mutans, Gram Positive, ethanol vehicle
# Excerpt: as §2
# L. casei = assay: Minimum inhibitory concentration; type: cell-based; conditions: Lacticaseibacillus casei, Gram Positive, ethanol vehicle
# Excerpt: as §2
# P. intermedia = assay: Minimum inhibitory concentration; type: cell-based; conditions: Prevotella intermedia, Gram Negative, ethanol vehicle
# Excerpt: as §2
# S. sobrinus = assay: Minimum inhibitory concentration; type: cell-based; conditions: Streptococcus sobrinus, Gram Positive, ethanol vehicle
# Excerpt: as §2
# S. oralis = assay: Minimum inhibitory concentration; type: cell-based; conditions: Streptococcus oralis, Gram Positive, ethanol vehicle
# Excerpt: as §2
structure (smiles),measurement,setting,value
Cc1ccc([B-]2(c3ccc(C)c(Cl)c3)OC(=O)c3ncccc3[OH+]2)cc1Cl [Compound 1],"decrease of the slope of the rate of decomposition, buffered vs unbuffered formulation",[1],3.3 fold
same,amount of Compound 1 solubilized by Fluraflo L4370,[2],1 % w/w
same,amount of Compound 1 solubilized by PEG 300,[2],10 % w/w
same,solubility in oils,[2],less than 0.5%
same,solubility in water,[2],100 ppm
same,solubilization by PEG 600,[2],can solubilize
same,appearance of solution,[2]; 1% Compound 1 in 19% PEG 300 and 80% propylene glycol,clear
same,decomposition in formulation,[3]; formulation containing sodium ascorbylphosphate vs without antioxidants,significantly reduced
same,decomposition in formulation,[3]; formulation containing α-tocopherol vs without antioxidants,even less
same,percent reduction versus the negative control,"biofilm; solution of 0.5% AN0128, 0.75% SLS, 50% Fluraflo L4370 in water",65%
same,percent reduction versus the negative control,"biofilm; solution of 0.5% Compound 1, 0.5% SLS, 9.5% PEG 300 and 40% propylene glycol in water",80%
same,percent reduction versus the negative control,"biofilm; solution of 1% Compound 1, 1% SLS, 50% PEG 300 in water",76%
same,MIC,F. nucleatum,1 to 2 µg/mL
same,MIC,S. sanguinis,0.25 to 0.5 µg/mL
same,MIC,V. parvula,7.8 µg/mL
same,MIC,A. actinomycetemcomitans,> 15.6 µg/mL
same,MIC,A. naeslundii,1 to 2 µg/mL
same,MIC,A. viscosus,1 µg/mL
same,MIC,S. gordonii,0.12 to 0.25 µg/mL
same,MIC,P. gingivalis,≤ 0.12 µg/mL
same,MIC,S. mutans,0.25 to 0.5 µg/mL
same,MIC,L. casei,2 to 3.9 µg/mL
same,MIC,P. intermedia,3.9 to 7.8 µg/mL
same,MIC,S. sobrinus,0.12 to 0.5 µg/mL
same,MIC,S. oralis,0.12 to 0.25 µg/mL
